Where two headings read alike, the source gives them in different places.
Target: T1, Recombinant human Src (Homo sapiens, UniProt P12931)
T1 construct: made in house; host or cells: baculovirus-insect cell system
Assay: Src tyrosine kinase activity, poly E4Y and 32P-ATP
Format: biochemical
Method: Recombinant human Src was expressed using the baculovirus-insect cell system and purified as published (Budde et al., 1993 and 2000). Recombinant Csk and the FGF receptor (FGFr) were expressed as glutathione-S-transferase fusion proteins using the pGEX expression vector and E. coli, and purified as described (Sun & Budde, 1995).
The tyrosine kinase activity of Src, Csk and FGFr was determined using poly E4Y and ^32P-ATP. Briefly, enzymes were assayed in a reaction mixture consisting of 0.15 M EPPS-NaOH (pH 8.0) with 6 mM MgCl2, 0.2 mM γ^32P-ATP (0.2-0.4 mCi/μmol), 10% glycerol, 0.1% Triton X-100, and poly E4Y. Poly E4Y is a synthetic peptide whose phosphorylation is measured in this assay by the addition of the radioactively labeled phosphate from the ATP (Budde et al., 1995). […] When ATP was varied (0, 50, 100 and 250 μM), poly E4Y was kept constant at 150 μg/ml.

[1] = Table 2, read-out: Src IC50 (especially good inhibitors of Src)
[2] = read-out: IC50 (preferred compounds for treatment of Src family-related disease)

T1 sequence (P12931 whole entry): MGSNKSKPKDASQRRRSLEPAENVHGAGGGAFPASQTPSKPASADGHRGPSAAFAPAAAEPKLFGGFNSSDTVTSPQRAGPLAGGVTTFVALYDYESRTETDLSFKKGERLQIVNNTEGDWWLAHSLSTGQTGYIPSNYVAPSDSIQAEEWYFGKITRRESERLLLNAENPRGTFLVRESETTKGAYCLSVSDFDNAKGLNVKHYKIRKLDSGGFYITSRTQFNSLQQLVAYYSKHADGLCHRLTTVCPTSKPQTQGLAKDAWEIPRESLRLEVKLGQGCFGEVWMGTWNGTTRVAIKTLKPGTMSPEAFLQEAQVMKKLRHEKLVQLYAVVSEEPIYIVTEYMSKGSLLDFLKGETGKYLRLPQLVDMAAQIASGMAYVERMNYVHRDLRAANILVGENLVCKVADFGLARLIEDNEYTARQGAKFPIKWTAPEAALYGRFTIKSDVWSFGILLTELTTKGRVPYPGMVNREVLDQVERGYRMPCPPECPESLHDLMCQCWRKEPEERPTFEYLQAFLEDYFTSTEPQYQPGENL

Compound | IC50 [1] [nM] | IC50 [2] [nM]
COc1ccc(C=NNc2ncnc3c(C)c(C(O)c4ccsc4)sc23)cc1O (stereo not drawn) [Compound 464, 3-Hydroxy-4-methoxybenzaldehyde(6-(1-hydroxy-1-[3-thienyl])methyl-7-methylthieno[3,2-d]pyrimidin-4-yl)hydrazone] | ≤ 2000 | < 2000
COc1ccc(C=NNc2ncnc3c(C)c(C(O)C4CCCCC4)sc23)cc1O (stereo not drawn) [Compound 472, 3-Hydroxy-4-methoxybenzaldehyde(6-(1-cyclohexyl-1-hydroxy)methyl-7-methylthieno[3,2-d]pyrimidin-4-yl)hydrazone] | ≤ 2000 | < 2000
Cc1c(C(O)c2ccsc2)sc2c(NN=Cc3ccc(C(=O)O)cc3)ncnc12 (stereo not drawn) [Compound 462, 4-Carboxybenzaldehyde(6-(1-hydroxy-1-[3-thienyl])methyl-7-methylthieno[3,2-d]pyrimidin-4-yl)hydrazone] | ≤ 2000 | < 2000
Cc1c(-c2cccc(CO)c2)sc2c(NN=Cc3ccc(C(=O)O)cc3)ncnc12 [Compound 441, 4-Carboxybenzaldehyde(6-(3-hydroxymethylphenyl)-7-methylthieno[3,2-d]pyrimidin-4-yl)hydrazone] | ≤ 2000 | < 2000
Cc1c(C(O)c2cccs2)sc2c(NN=Cc3cccnc3)ncnc12 (stereo not drawn) [Compound 487, 3-Pyridinecarboxaldehyde(6-(1-hydroxy-1-[2-thienyl])methyl-7-methylthieno[3,2-d]pyrimidin-4-yl)hydrazone] | – | < 2000
Cc1c(-c2ccsc2)sc2c(NN=Cc3ccc(C(=O)O)cc3)ncnc12 [Compound 380, 4-Carboxybenzaldehyde(7-methyl-6-(3-thienyl)thieno[3,2-d]pyrimidin-4-yl)hydrazone] | ≤ 2000 | < 2000
Cc1c(C(O)C2CCCCC2)sc2c(NN=Cc3ccc(C(=O)O)cc3)ncnc12 (stereo not drawn) [Compound 470, 4-Carboxybenzaldehyde(6-(1-cyclohexyl-1-hydroxy)methyl-7-methylthieno[3,2-d]pyrimidin-4-yl)hydrazone] | ≤ 2000 | < 2000
COc1ccc(-c2sc3c(NN=Cc4ccc(C(=O)O)cc4)ncnc3c2C)cc1 [Compound 423, 4-Carboxybenzaldehyde(6-(4-methoxyphenyl)-7-methylthieno[3,2-d]pyrimidin-4-yl)hydrazone] | ≤ 2000 | < 2000
Cc1c(C(O)C2CCCCC2)sc2c(NN=Cc3cccs3)ncnc12 (stereo not drawn) [Compound 471, 2-Thiophenecarboxaldehyde(6-(1-cyclohexyl-1-hydroxy)methyl-7-methylthieno[3,2-d]pyrimidin-4-yl)hydrazone] | ≤ 2000 | < 2000
Cc1c(-c2cccc(CO)c2)sc2c(NN=Cc3cccnc3)ncnc12 [Compound 440, 3-Pyridinecarboxaldehyde(6-(3-hydroxymethylphenyl)-7-methylthieno[3,2-d]pyrimidin-4-yl)hydrazone] | ≤ 2000 | < 2000
COc1ccccc1-c1sc2c(NN=Cc3cccs3)ncnc2c1C [Compound 434, 2-Thiophenecarboxaldehyde(6-(2-methoxyphenyl)-7-methylthieno[3,2-d]pyrimidin-4-yl)hydrazone] | ≤ 2000 | < 2000
O=C(O)c1ccc(C=NNc2ncnc3cc(-c4ccc(F)cc4)sc23)cc1 [Compound 280, 4-Carboxybenzaldehyde(6-(4-fluorophenyl)thieno[3,2-d]pyrimidin-4-yl)hydrazone] | ≤ 2000 | < 2000
Cc1c(C(O)c2cccnc2)sc2c(NN=Cc3cccs3)ncnc12 (stereo not drawn) [Compound 485, 2-Thiophenecarboxaldehyde(6-(1-hydroxy-1-[3-pyridyl])methyl-7-methylthieno[3,2-d]pyrimidin-4-yl)hydrazone] | ≤ 2000 | < 2000
Cc1c(I)sc2c(NN=Cc3ccc(C(=O)O)cc3)ncnc12 [Compound 373, 4-Carboxybenzaldehyde(6-iodo-7-methylthieno[3,2-d]pyrimidin-4-yl)hydrazone] | ≤ 2000 | < 2000
O=C(O)c1ccc(C=NNc2ncnc3cc(-c4ccccc4Cl)sc23)cc1 [Compound 318, 4-Carboxybenzaldehyde(6-(2-chlorophenyl)thieno[3,2-d]pyrimidin-4-yl)hydrazone] | ≤ 2000 | < 2000
Cc1c(C(O)c2cccs2)sc2c(NN=Cc3cccs3)ncnc12 (stereo not drawn) [Compound 489, 2-Thiophenecarboxaldehyde(6-(1-hydroxy-1-[2-thienyl])methyl-7-methylthieno[3,2-d]pyrimidin-4-yl)hydrazone] | ≤ 2000 | < 2000
Cc1csc2c(NN=Cc3ccc(O)c(O)c3)ncnc12 [Compound 23, 3,4-Dihydroxybenzaldehyde(7-methylthieno[3,2-d]pyrimidin-4-yl)hydrazone] | ≤ 2000 | < 2000
C(=NNc1ncnc2ccsc12)c1cccnc1 [Compound 98, 3-Pyridinecarboxaldehyde(thieno[3,2-d]pyrimidin-4-yl)hydrazone] | ≤ 2000 | < 2000
Cc1[nH]cnc1C=NNc1ncnc2c(C)csc12 [Compound 100, 5-Methyl-1H-imidazole-4-carboxaldehyde(7-methylthieno[3,2-d]pyrimidin-4-yl)hydrazone] | ≤ 2000 | < 2000
COc1ccc(C=NNc2ncnc3c(C)c(C(O)c4cccnc4)sc23)cc1O (stereo not drawn) [Compound 486, 3-Hydroxy-4-methoxybenzaldehyde(6-(1-hydroxy-1-[3-pyridyl])methyl-7-methylthieno[3,2-d]pyrimidin-4-yl)hydrazone] | ≤ 2000 | < 2000
COc1cccc(-c2sc3c(NN=Cc4ccc(C(=O)O)cc4)ncnc3c2C)c1 [Compound 427, 4-Carboxybenzaldehyde(6-(3-methoxyphenyl)-7-methylthieno[3,2-d]pyrimidin-4-yl)hydrazone] | ≤ 2000 | < 2000
Cc1csc2c(NN=Cc3ccc(O)c([N+](=O)[O-])c3)ncnc12 [Compound 49, 4-Hydroxy-3-nitrobenzaldehyde(7-methylthieno[3,2-d]pyrimidin-4-yl)hydrazone] | ≤ 2000 | < 2000
Cc1c(C(Cc2ccccc2)c2ccccc2)sc2c(NN=Cc3cccnc3)ncnc12 (stereo not drawn) [Compound 473, 3-Pyridinecarboxaldehyde(6-(1-benzyl-1-phenyl)methyl-7-methylthieno[3,2-d]pyrimidin-4-yl)hydrazone] | ≤ 2000 | < 2000
CS(=O)(=O)c1ccc(-c2cc3ncnc(NN=Cc4ccc(C(=O)O)cc4)c3s2)cc1 [Compound 291, 4-Carboxybenzaldehyde(6-(4-methanesulphonylphenyl)thieno-[3,2-d]pyrimidin-4-yl)hydrazone] | ≤ 2000 | < 2000
COc1ccc(C=NNc2ncnc3c(C)c(C(O)c4ccccc4)sc23)cc1O (stereo not drawn) [Compound 460, 3-Hydroxy-4-methoxybenzaldehyde(6-(1-hydroxy-1-phenyl)methyl-7-methylthieno[3,2-d]pyrimidin-4-yl)hydrazone] | ≤ 2000 | < 2000
Cc1c(C(=O)O)sc2c(NN=Cc3ccc(C(=O)O)cc3)ncnc12 [Compound 466, 4-Carboxybenzaldehyde(6-carboxy-7-methylthieno[3,2-d]pyrimidin-4-yl)hydrazone] | ≤ 2000 | < 2000
